# Laboratory results published in patent US20250345426A1, “METHODS FOR MAKING AND USING THERAPEUTIC CELLS” (THE REGENTS OF THE UNIVERSITY OF CALIFORNIA, priority 2022, published 2025).
# System: Leu16 CAR-T cells
# Assay: T-cell subtype distribution and Tn/scm enrichment, Leu16 CAR-T cells
# Type: cell-based, human
# Conditions: 6 days of pharmacological modulation, relative to vehicle
# From the text: FIG. 3A-G. Pharmacological modulation of Leu16 CAR-T cells modestly dampens tonic signaling while enhancing anti-tumor efficacy. (A) Pictorial representation of the correlation between tonic signaling-modulated rituximab CAR-T cells and in vivo anti-tumor efficacy. (B) Pictorial representation of pharmacological modulation strategy aimed to either increase or decrease Leu16 CAR tonic signaling; c-MYC (MYCi975) and SREBP (betulin) inhibition increased tonic signaling whereas mTORC1 (rapamycin) inhibition decreased tonic signaling in rituximab CAR-T cells. (C) % distribution of T-cell subtypes in CAR^+ T cells after 6 days of pharmacological modulation (left) and Tn/scm enrichment (right). […] (F) Tumor signal (in photons/sec/cm2/sr) in individual animals as quantified by bioluminescence imaging. […]
# Antibody staining for flow-cytometry analysis. EGFRt expression was measured with biotinylated cetuximab (Eli Lilly; biotinylated in-house), followed by PE-conjugated streptavidin (Jackson ImmunoResearch #016-110-084). CAR expression was quantified by surface epitope staining using anti-Fc (Alexa Fluor 488, Jackson ImmunoResearch #709-546-098). […] T-cell subtype of CAR-T cells was evaluated by antibody staining for CD45RO (VioBlue®, clone REA611, Miltenyi #130-119-620) and CD62L (APC, clone DREG56, Invitrogen #17-0629-42) after 5-6 days of inhibitor culture (FIG. 1, FIG. 3). […]
row,Molecule,enrichment of Tn/scm cells
1,"C=C(C)[C@@H]1CC[C@]2(CO)CC[C@]3(C)[C@H](CC[C@@H]4[C@@]5(C)CC[C@H](O)C(C)(C)[C@@H]5CC[C@]43C)[C@@H]12 [betulin, Betulin]",increased enrichment
2,MYCi975,increased enrichment
